Data published in US8178538B2, “Pyridazinones” (Hoffmann-La Roche Inc., priority 2008, dated 2012).

Biological target: T1, PDE10A2 (Homo sapiens, UniProt Q9Y233)
T1 construct: residues serine 449 to aspartate 789; His6 (H6) with thrombin cleavage site (N, cleaved yes); made in house; host or cells: E. coli BL21(DE3) pLysS
Test: PDE10A2 inhibition, Scintillation Proximity Assay (SPA)
Assay type: biochemical
Settings: catalytic domain of human PDE10A2 (S449-D789), 0.25 nM enzyme, 50 nM cGMP + 50 nM [3H]-cGMP, 30 minutes at room temperature
Summary of the method: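 Human PDE10A2 catalytic domain (S449-D789, E. coli-expressed) at 0.25 nM hydrolysed 50 nM cGMP plus 50 nM [3H]-cGMP in 20 mM HEPES/10 mM MgCl2, pH 7.5, for 30 min at room temperature. Stopped with YSi-SPA beads in zinc sulphate; scintillation counts over a concentration range gave IC50.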

T1 sequence (Q9Y233 715-1055): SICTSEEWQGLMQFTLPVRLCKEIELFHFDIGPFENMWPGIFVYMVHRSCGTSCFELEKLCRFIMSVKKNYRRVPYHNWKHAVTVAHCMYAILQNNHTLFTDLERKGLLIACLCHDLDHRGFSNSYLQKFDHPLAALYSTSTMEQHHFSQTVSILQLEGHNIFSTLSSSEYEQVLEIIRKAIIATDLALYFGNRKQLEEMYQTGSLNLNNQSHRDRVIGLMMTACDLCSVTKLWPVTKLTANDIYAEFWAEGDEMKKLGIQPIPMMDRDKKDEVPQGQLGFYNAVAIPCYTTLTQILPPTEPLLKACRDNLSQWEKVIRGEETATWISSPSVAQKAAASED

| Structure (SMILES) | IC50 [µM] |
| --- | --- |
| O=c1ccn(-c2cccc(OC(F)F)c2)nc1-c1ccnn1-c1cccc(F)c1 [Example 98, 1-(3-Difluoromethoxy-phenyl)-3-[2-(3-fluoro-phenyl)-2H-pyrazol-3-yl]-1H-pyridazin-4-one] | 0.222 |
| N#Cc1cccc(-n2nccc2-c2nn(-c3cccc(C(F)(F)F)c3)ccc2=O)c1 [Example 14, 3-{5-[4-Oxo-1-(3-trifluoromethyl-phenyl)-1,4-dihydro-pyridazin-3-yl]-pyrazol-1-yl}-benzonitrile] | 0.038 |
| CS(=O)(=O)c1cccc(-n2ccc(=O)c(-c3ccnn3-c3cccc(C#N)c3)n2)c1 [Example 94, 3-{5-[1-(3-Methanesulfonyl-phenyl)-4-oxo-1,4-dihydro-pyridazin-3-yl]-pyrazol-1-yl}-benzonitrile] | 0.055 |

Second part, the compound after the results:

| IC50 [µM] | Structure (SMILES) |
| --- | --- |
| 0.04 | O=c1ccn(-c2cccc(S(=O)(=O)N3CCCCC3)c2)nc1-c1ccnn1-c1ccnc2ccc(Cl)cc12 [Example 267, 3-[2-(6-Chloro-quinolin-4-yl)-2H-pyrazol-3-yl]-1-[3-(piperidine-1-sulfonyl)-phenyl]-1H-pyridazin-4-one] |
| 0.017 | O=c1ccn(-c2cccc(S(=O)(=O)C(F)(F)F)c2)nc1-c1ccnn1-c1ccccc1 [Example 281, 3-(2-Phenyl-2H-pyrazol-3-yl)-1-(3-trifluoromethanesulfonyl-phenyl)-1H-pyridazin-4-one] |
| 0.012 | O=c1ccn(-c2ccc(S(=O)(=O)C(F)(F)F)cc2)nc1-c1ccnn1-c1ccccc1F [Example 232, 3-[2-(2-Fluoro-phenyl)-2H-pyrazol-3-yl]-1-(4-trifluoromethanesulfonyl-phenyl)-1H-pyridazin-4-one] |
| 0.155 | O=c1ccn(-c2cccc(OC(F)(F)F)c2)nc1-c1ccnn1-c1ccc2c(c1)OC(F)(F)O2 [Example 162, 3-[2-(2,2-Difluoro-benzo[1,3]dioxol-5-yl)-2H-pyrazol-3-yl]-1-(3-trifluoromethoxy-phenyl)-1H-pyridazin-4-one] |
